Laboratory results published in patent US20250313544A1, “INHIBITORS OF GLUTATHIONE S-TRANSFERASE ZETA 1 (GSTZ1) AND METHODS OF USE” (H. LEE MOFFITT CANCER CENTER AND RESEARCH INSTITUTE, INC., priority 2022, published 2025).

Columns and labels:
H1792 cells [1] = experiment: In-gel fluorescence analysis of probe-labeled proteins after photocrosslinking in live H1792 cells; format: binding, human; details: compared to vehicle
Description: (§1) Cells were grown in 10 cm dishes to ˜90% confluence at the time of treatment. Cells were carefully washed twice with Dulbecco's phosphate buffered saline (DPBS) and replenished with fresh serum-free RPMI 1640 media containing indicated probes ([…]), competitors, or DMSO. Without competitors, cells were incubated with probes for 30 min at 37° C. and then exposed to 365 nm UV light for 15 min on ice. With competitors, cells were pre-treated with competitors for 30 min and photoactivated for 15 min. Probes were then added to cells for an additional 30 min incubation. For no UV experiments, cells were incubated for 15 min under ambient light. Cells were harvested in cold DPBS and pellets were washed with cold DPBS (2 X). Pellets were either directly processed or kept frozen at −80° C. until use. Cells pellets were lysed for 30 min in cold DPBS (100-300 uL) per culture dish supplemented with 1% NP-40, followed by sonication (5 pulses, 4 s on, 20 s off, output setting=4). Lysates were centrifuged at 20,817×g for 20 min, and supernatant (soluble proteome) was used for further processing. Protein concentrations were determined using Bradford assays.
To 1 mg of protein, were added a mixture of TBTA (Tris((1-benzyl-4-triazolyl)methyl)amine, 60 μL/sample, 1.7 mM in 1:4 DMSO: t-BuOH stock), CuSO4 (20 μL/sample, 50 mM in H2O), TCEP (tris(2-carboxyethyl) phosphine, 20 μL/sample, 50 mM in DPBS, made fresh) and Biotin-Azide conjugate (10 μL/sample, 10 mM in DMSO stock). Each sample was rotated at room temperature for 2 h. To each resultant a cold 4:1 mixture (600 μL) of methanol (MeOH)/chloroform (CHCl3) was added followed by cold PBS (100 μL) on ice. The resulting cloudy mixture was centrifuged (5,000×g, 10 min, 4° C.) to fractionate the protein interface from the organic and aqueous solvent layers. A MeOH:CHCl3 (1:1, 1 mL, 2×) mixture was used to wash protein discs thoroughly. Protein discs were sonicated in cold 4:1 MeOH:CHCl3 (2 mL) mixture. The remaining precipitate was pelleted by centrifugation (5,000×g, 10 min, 4° C.). […] Gels were subjected to fluorescence imaging or Western Blotting.

[2] = test system: H1792 cells harboring KRAS G12C; experiment: Cell viability assay (CellTiter-Glo) in H1792 cells; format: cell-based, human
Description: (§2) Cells were seeded in Corning 384-well black walled/clear bottom microplates with a density of 1,000 cells/well and treated with indicated drugs and concentrations following cell attachment for 24 h. After 72 h or 96 h, as indicated, cell viability was evaluated with CellTiter-Glo (Promega, Madison, WI) according to manufacturer's recommendations. An M5 Spectramax plate reader (Molecular devices) was used to read the plates with 500 ms integration. Data was processed and analyzed using Excel and GraphPad Prism 9.0.

[3] = test system: drug-refractory NSCLC cells (H1792, H520, HCC366); experiment: Cell viability assay (CellTiter-Glo) across drug-refractory NSCLC cell lines; format: cell-based, human; details: single agent
Description: as §2

[4] = test system: H520 cells harboring amplified FGFR1; experiment: Cell viability assay (CellTiter-Glo) in H520 cells; format: cell-based, human
Description: as §2

H1792 LUAD cells = experiment: Chemical proteomics target profiling in live H1792 cells (label-free LC-MS/MS, comparison with control probe 22 and panel-wide cross-comparison); format: binding, human; details: for prominent target protein predominantly enriched by the probe: compared to control probe and probe panel; for number of probe-enriched target candidates over control probe 22 (promiscuity): log2 ratio vs. control probe >2.32; for other proteins also enriched by the probe: log2 ratio>2.32 and enrichment score>2
Description: as §1
Protein pellets were transferred to 5 mL microcentrifuge tubes and then resuspended in a freshly-prepared solution of proteomics-grade urea (320 μL, 6 M Urea in DPBS) containing 80 μL of 10% SDS and dissolved by sonication. To each solution, 4 mL DPBS was added (final conc: 0.2%, total volume) and incubated with pre-equilibrated NeutrAvidin agarose resin (100 μL 1:1 slurry, Pierce, Cat. 29201) for 2 hrs at ambient temperature on a rotator. The NeutrAvidin beads were collected by centrifugation (1,400×g, 2 min) and sequentially washed with 0.2% SDS in DPBS (2×2 mL), detergent-free DPBS (2×2 mL), and 50 mM ammonium bicarbonate (AMBIC, 2×2 mL). Beads were resuspended with 200 μL 50 mM AMBIC and incubated with TCEP 50 μL (100 mM in 50 mM AMBIC) for 30 min at 37° C. Iodoacetamide (50 μL of 200 mM in 50 mM AMBIC) was added and incubated for 30 min at ambient temperature. The beads were again washed with 2×1 mL 50 mM AMBIC and resuspended in 100 μL of fresh 50 mM AMBIC and treated with 2 μg of sequencing grade modified trypsin (Promega, #V5111) at 37° C. overnight. These samples were acidified with formic acid (final conc: 5%) and centrifuged (1,000×g, 2 min). The supernatant was collected and desalted through ZIPTIPs, and the desalted peptide mixture were dried in vacuum and reconstituted with HPLC buffer (2% acetonitrile, 0.1% formic acid) for LC-MS/MS analysis. Tryptic peptides of avidin were excluded from MS2 analysis to maximize detection of the protein targets (Table S7). Samples were analyzed using LC-MS/MS after being spiked with 50 fmol/uL PRTC standards (88320, Pierce Retention Time Calibration Mixture, Thermo Fisher, MA). A nanoflow ultra high performance liquid chromatograph and nanoelectrospray orbitrap mass spectrometer (RSLCnano and Q Exactive plus, Thermo) were used for LC-MS/MS. The sample was loaded onto a pre-column (C18 PepMap100, 2 cm length×100 μm ID packed with C18 reversed-phase resin, 5 μm particle size, 100 Å pore size) and washed for 8 minutes with aqueous 2% acetonitrile and 0.1% formic acid. Trapped peptides were eluted onto the analytical column, (C18 PepMap100, 25 cm length×75 μm ID, 2 μm particle size, 100 Å pore size, Thermo). A 120-minute gradient was programmed as: 95% solvent A (aqueous 2% acetonitrile+0.1% formic acid) for 8 minutes, solvent B (aqueous 90% acetonitrile+0.1% formic acid) from 5% to 38.5% in 90 minutes, then solvent B from 50% to 90% B in 7 minutes and held at 90% for 5 minutes, followed by solvent B from 90% to 5% in 1 minute and re-equilibration for 10 minutes using a flow rate of 300 nl/min. Spray voltage was 1900 V. Capillary temperature was 275° C. S lens RF level was set at 40. Top 16 tandem mass spectra were collected in a data-dependent manner. The resolution for MS and MS/MS were set at 70,000 and 17,500 respectively. […]

H1792 cells [5] = experiment: Protein tyrosine reactivity profiling (SuTEx probe HHS-482, LC-MS/MS) in H1792 cells; format: cell-based, human; details: 24 h treatment, log2 ratio ≤−0.585 or ≥0.585, p<0.05 vs. vehicle
Description: Cell lysates were prepared and diluted to 2 mg/mL in PBS. Samples were treated with HHS-482 (a SuTEx probe) at 25 μM for 1 h at room temperature. Labeled proteomes were subjected to CuAAC conjugation with Biotin-Azide conjugate (200 μM) by mixing with TCEP (1 mM), TBTA (100 μM), and CuSO4 (1 mM). After 1 h incubation, resulting mixtures were subjected to MeOH: CHCl3 extraction as described above. Protein discs were reconstituted with urea buffer supplemented with 10% SDS. Samples were processed with NeutrAvidin beads, on-bead digestion with trypsin, and ZIPTIP purification as described above. Samples were dried in vacuum and prepared for LC-MS/MS analysis.

C#CCCC1(CCC(=O)NCCCNC(=O)c2ccc3c4c(ncnc24)-c2ccccc2C3=O)N=N1 [Probe 21, N-(3-(3-(3-(but-3-yn-1-yl)-3H-diazirin-3-yl)propanamido)propyl)-7-oxo-7H-benzo[e]perimidine-4-carboxamide]
proteome labeling by probe (in-gel fluorescence) (H1792 cells [1]): efficiently labeled a wide range of proteins | cellular activity (cell viability) ([2]; H1792 cells, single agent): highly active | cellular activity of probes (cell viability) [3]: displayed activity toward multiple tested cell lines | relative potency among active probes (cell viability) [3]: more potent | cellular activity (cell viability) ([4]; H520 cells, single agent): highly active | number of candidate target proteins identified for the probe (H1792 LUAD cells): 5

C#CCCC1(CCC(=O)N2CCCC2COc2nc3ccccc3cc2C#N)N=N1 (stereo not drawn) [Probe 20, 2-((1-(3-(3-(but-3-yn-1-yl)-3H-diazirin-3-yl)propanoyl)pyrrolidin-2-yl)methoxy)quinoline-3-carbonitrile]
cellular activity of probes (cell viability) [3]: displayed activity toward multiple tested cell lines

C#CCCC1(CCC(=O)N2CCN(Cc3nc(-c4cccs4)cs3)CC2)N=N1 [Probe 6, 3-(3-(but-3-yn-1-yl)-3H-diazirin-3-yl)-1-(4-((4-(thiophen-2-yl)thiazol-2-yl)methyl)piperazin-1-yl)propan-1-one]
prominent target protein predominantly enriched by the probe (H1792 LUAD cells): NDUFB11 | number of probe-enriched target candidates over control probe 22 (promiscuity) (H1792 LUAD cells): most promiscuous | other proteins also enriched by the probe (H1792 LUAD cells): NDUFB10, AK3, and LTA4H

CCN1CCN(c2ccc(Nc3cc(N(C)C(=O)Nc4c(Cl)c(OC)cc(OC)c4Cl)ncn3)cc2)CC1 [infigratinib, reference compound]
cell response to targeted drug ([4]; H520, FGFR1 overexpression): only partially respond

C#CCCC1(CCC(=O)Nc2ccc3c(c2)N(CC(C)C)C(=O)C(C)(C)CO3)N=N1 [Probe 7, 3-(3-(but-3-yn-1-yl)-3H-diazirin-3-yl)-N-(5-isobutyl-3,3-dimethyl-4-oxo-2,3,4,5-tetrahydrobenzo[b][1,4]oxazepin-7-yl)propanamide]
cellular activity of probes (cell viability) [3]: displayed activity toward multiple tested cell lines | prominent target protein predominantly enriched by the probe (H1792 LUAD cells): MMGT1 | number of probe-enriched target candidates over control probe 22 (promiscuity) (H1792 LUAD cells): most promiscuous

C=CC(=O)N1CCN(c2nc(=O)n(-c3c(C)ccnc3C(C)C)c3nc(-c4c(O)cccc4F)c(F)cc23)[C@@H](C)C1 [sotorasib]
number of proteins with significantly altered Tyr reactivity (H1792 cells [5]): 106 proteins

C#CCCC1(CCC(=O)N2CCCCC2c2nnc(C(=O)OC)s2)N=N1 (stereo not drawn) [Probe 19, Methyl-5-(1-(3-(3-(but-3-yn-1-yl)-3H-diazirin-3-yl)propanoyl)piperidin-2-yl)-1,3,4-thiadiazole-2-carboxylate]
number of probe-enriched target candidates over control probe 22 (promiscuity) (H1792 LUAD cells): few

C=CC(=O)N1CCN(c2ncnc3c(F)c(-c4c(O)cccc4F)c(Cl)cc23)CC1 [ARS1620, reference compound]
cell response to targeted drug ([2]; H1792, KRAS^G12C mutation): poorly responded

C#CCCC1(CCC(=O)N2CC(Nc3ncccn3)C2)N=N1 [Probe 18, 3-(3-(but-3-yn-1-yl)-3H-diazirin-3-yl)-1-(3-(pyrimidin-2-ylamino)azetidin-1-yl)propan-1-one]
number of probe-enriched target candidates over control probe 22 (promiscuity) (H1792 LUAD cells): few

C#CCCC1(CCC(=O)N2CCC(Oc3ncc(C(F)(F)F)cc3Cl)C2)N=N1 (stereo not drawn) [Probe 5, 3-(3-(but-3-yn-1-yl)-3/-diazirin-3-yl)-1-(3-((3-chloro-5-(trifluoromethyl)pyridin-2-yl)oxy)pyrrolidin-1-yl)propan-1-one]
proteome labeling by probe (in-gel fluorescence) (H1792 cells [1]): efficiently labeled a wide range of proteins | cellular activity of probes (cell viability) [3]: displayed activity toward multiple tested cell lines | prominent target protein predominantly enriched by the probe (H1792 LUAD cells): ME3 | number of probe-enriched target candidates over control probe 22 (promiscuity) (H1792 LUAD cells): most promiscuous | other proteins also enriched by the probe (H1792 LUAD cells): FARSA, PTGR1, ME1, YIF1A, and SGPL1

C#CCCC1(CCC(=O)NC2CC(Oc3nccn4nc(C)cc34)CC(C)(C)C2)N=N1 (stereo not drawn) [Probe 2, 3-(3-(but-3-yn-1-yl)-3H-diazirin-3-yl)-N-(3,3-dimethyl-5-((2-methylpyrazolo[1,5-a]pyrazin-4-yl)oxy)cyclohexyl)propanamide]
number of probe-enriched target candidates over control probe 22 (promiscuity) (H1792 LUAD cells): most promiscuous
